Assays:
Chinese liver microsomes = experiment: Microsomal conversion of estragole by Chinese liver microsomes (NADPH)
Experimental: (§1) The incubation mixtures contained (final concentrations) 3 mM NADPH and 1 mg/mL microsomal protein in 0.2 M Tris–HCl (pH 7.4). Incubations were performed for 10 min at substrate concentrations ranging from 25 to 1000 μM, after which the reaction was terminated by adding 25 μL ice-cold acetonitrile. Blank incubations were performed in the absence of the cofactor NADPH. All incubations were performed in triplicate. In the supporting materials 2, detailed information can be found (Table S1 can be used to keep track of detailed information).
(§2) Before UPLC analysis, all samples were centrifuged for 5 min at 16,000 g to precipitate microsomal proteins. Supernatant of each sample was analyzed on UPLC using a BEH C18 (1.7 μm, 2.1 × 50 mm) column with a guard column and a diode array detector (Acquity, Waters). […] Table S1 can be used to keep track of detailed information.
(§3) The apparent maximum velocity (V max) and the apparent Michaelis–Menten constant (K m) were determined by fitting the data to this equation using GraphPad Prism version 5.0 (GraphPad software, San Diego California USA).
(§4) The incubation mixtures contained (final concentrations) 3 mM NADPH and 1 mg/ml microsomal protein in 0.2 M Tris-HCl (pH 7.4). […] Incubations were performed for 10 min at substrate concentrations ranging from 25 to 1000 μM, after which the reaction was terminated by adding 25 μl ice-cold acetonitrile. […] Blank incubations were performed in the absence of the cofactor NADPH. All incubations were performed in triplicate.
The flow rate was 0.6 ml/min and the gradient started with 100 % ultrapure water.

[1] = test system: Caucasian liver microsomes; experiment: Microsomal conversion of estragole by Caucasian liver microsomes (NADPH); type: in vitro ADME, human
Experimental: as §1
as §2, with “information. […] 3′-Hydroxyanethole was quantified by comparison of the peak areas of the metabolite in the chromatograms obtained at a wavelength of 206 nm to the calibration curve of the synthesized reference compound (Agharahimi and LeBel [1995]; Drinkwater et al. [1976]; Iyer et al. [2003]; Luo et al. [1992]).” for “information.”
as §3, §4
The flow rate was 0.6 ml/min and the gradient started with 100 % ultrapure water. After 1 min, the amount of acetonitrile was increased to 10 % and kept at that level for 1 min, after which the percentage of acetonitrile was increased to 35 % in 2.5 min and then increased to 100 % over 0.5 minute and kept at 100 % acetonitrile for another 1 min, and finally back to the starting conditions.

Chinese liver S9 = experiment: Sulfation of 1′-hydroxyestragole by Chinese liver S9 (PAPS, GSH trapping); type: in vitro ADME, human
Experimental: (§5) The formation of 1′-sulfooxyestragole was determined by incubating 0.2 mg/mL pooled mixed gender Chinese or Caucasian liver S9 in the presence of 0.2 mM PAPS as cofactor and 10 mM GSH as trapping agent for the reactive 1′-sulfooxyestragole in 0.1 M potassium phosphate (pH 8.0). The incubations were carried out for 2 h, and the reactions were terminated by adding 25 μL ice-cold acetonitrile. The blank samples were performed without cofactor. All incubations were performed in triplicate. In the supporting materials 2, detailed information can be found (Table S1 can be used to keep track of detailed information).
(§6) Before UPLC analysis, all samples were centrifuged for 5 min at 16, 000 g to precipitate microsomal or cytosolic proteins. Supernatant of each sample was analyzed on UPLC using a BEH C18 (1.7 μm, 2.1 × 50 mm) column with a guard column and a diode array detector (Acquity, Waters). Secondary metabolism of 1′-hydroxyestragole includes glucuronidation, oxidation, and sulfation. The gradient of analysis of the metabolites of 1′-hydroxyestragole can be found in supporting materials 2. Table S1 can be used to track more detailed information.
(§7) Since the UV spectrum of 3′-hydroxyanethole is similar to that of the GSH adduct of 1′-sulfooxyestragole, quantification of 1′-sulfooxyestragole could be achieved by comparing the peak area of the GSH adduct of 1′-sulfooxyestragole to the calibration curve of 3′-hydroxyanethole at a wavelength 260 nm as described for the quantification of 1′-sulfooxysafrole and 1′-sulfooxyelemicin (Martati et al. [2012]; Van den Berg et al. [2012]). The amount of 1′-sulfooxyestragole GSH adduct formed was corrected for the amount detected in the blank samples performed without the respective cofactor PAPS.
as §3
(§8) The formation of 1'-sulfooxyestragole was determined by incubating 0.2 mg/ml pooled mixed gender Chinese or Caucasian liver S9 in the presence of 0.2 mM PAPS as cofactor and 10 mM GSH as trapping agent for the reactive 1'-sulfooxyestragole in 0.1 M potassium phosphate (pH 8.0). The final volume of the incubations was 100 μl with the substrate 1'-hydroxyestragole ranging from 15 to 2000 μM added from 100 times concentrated stock solutions in DMSO. As previously described by Martati et al. (Martati et al. 2011) and Al-Subeihi et al. (Al-Subeihi et al. 2011), the reactions were started by adding substrate after a pre-incubation at 37 °C for 1 min. The incubations were carried out for 2 hours and the reactions were terminated by adding 25 μl ice-cold acetonitrile. […] The blank samples were performed without cofactor. All incubations were performed in triplicate.
(§9) For detection of the GSH conjugate of 1'-sulfooxyestragole, the flow rate was 0.6 ml/min and the mobile phase was made with acetonitrile and ultrapure water with 0.1 % (v/v) TFA. A linear gradient started from 20 to 30 % acetonitrile in 4.5 min, after which the percentage of acetonitrile was increased to 100 % in 0.3 min and kept at 100 % for another 0.2 min and finally set back to the starting condition.

CYP 2A6 [2] = target: T1, CYP 2A6 (Homo sapiens, UniProt P11509); design: method as in Yang et al. 2012; settings: ref Yang et al. 2012, cited from earlier work
T1 construct: tissue PrimeTox (Chinese pool); BD Gentest (Caucasian pool); host or cells: pooled mixed-gender human liver microsomes
T1 sequence (P11509 1-494): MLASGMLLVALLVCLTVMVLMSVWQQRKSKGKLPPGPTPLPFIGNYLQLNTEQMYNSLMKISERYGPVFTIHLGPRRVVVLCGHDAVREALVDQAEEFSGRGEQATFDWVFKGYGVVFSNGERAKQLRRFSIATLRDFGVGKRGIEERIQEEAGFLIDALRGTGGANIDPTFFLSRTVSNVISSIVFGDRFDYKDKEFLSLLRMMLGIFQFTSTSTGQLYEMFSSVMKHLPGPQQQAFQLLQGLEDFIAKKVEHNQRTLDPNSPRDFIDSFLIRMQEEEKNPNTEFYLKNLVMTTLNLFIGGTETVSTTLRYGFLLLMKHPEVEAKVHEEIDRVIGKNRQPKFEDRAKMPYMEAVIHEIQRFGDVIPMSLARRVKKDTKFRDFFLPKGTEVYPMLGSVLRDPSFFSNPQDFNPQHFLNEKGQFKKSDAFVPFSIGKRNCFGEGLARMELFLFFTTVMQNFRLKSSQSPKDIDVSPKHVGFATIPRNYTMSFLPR

CYP 2A6 [3] = target: T1, CYP 2A6; experiment: CYP 2A6 mediated 7-hydroxylation of coumarin, liver microsomes; type: in vitro ADME
Experimental: (§10) The quality of the Chinese and Caucasian liver microsomes was checked by measuring the activity of CYP1A2 and CYP2A6 by the method of Yang et al. ([2012]). The quality of Chinese and Caucasian liver S9 samples was checked by measuring the SULT activity based on the method provided by Wang et al. ([2006]). The details of the methods for the microsomal and S9 in vitro incubations and UPLC analysis for assessing the metabolic capabilities of CYP and SULT enzymes can be found in the supporting materials 1.
The quality of the Chinese and Caucasian liver microsomes was checked by measuring the activity of CYP 1A2 and CYP 2A6 by the method of Yang et al. (Yang et al. 2012). CYP 1A2 and CYP 2A6 are predominant enzymes for formation of 1'-hydroxyestragole (Jeurissen et al. 2007). The activity of CYP 1A2 was measured with the substrate phenacetin, and the activity of CYP 2A6 was checked using the substrate coumarin. […] The samples were centrifuged for 5 min at 16, 000g to precipitate microsomal proteins and analyzed by UPLC.
(§11) Before UPLC analysis, all samples were centrifuged for 5 min at 16, 000g to precipitate microsomal or cytosolic proteins. Supernatant of each sample was analyzed on UPLC using a BEH C18 (1.7 μm 2.1×50 mm) column with a guard column and a diode array detector (Acquity, Waters).

Caucasian liver S9 = experiment: Sulfation of 1′-hydroxyestragole by Caucasian liver S9 (PAPS, GSH trapping); type: in vitro ADME, human
Experimental: as §5, §6, §7, §3, §8, §9

SULT = SULT mediated conversion of 7-hydroxycoumarin to 7-hydroxycoumarin sulfate, liver S9; type: in vitro ADME, human
Experimental: as §10, §11

[4] = formation of the metabolite from estragole, Chinese liver microsomes, average ± SEM
[5] = in vitro, liver microsomes, conversion of estragole
[6] = formation of the metabolite from estragole, Caucasian liver microsomes, average ± SEM
[7] = formation from 1′-hydroxyestragole (sulfation), Caucasian liver S9
[8] = formation from 1′-hydroxyestragole (sulfation), Chinese liver S9

## C=CC(O)c1ccc(OC)cc1 (centres unmarked) [1′-Hydroxyestragole]
Chinese liver microsomes; formation from estragole, Chinese, scaled to liver
  Catalytic efficiency (scaled V max / K m): 15.0 µL/h/g liver
Chinese liver microsomes; formation from estragole, Chinese, scaled with microsomal protein yield 35 mg/(g tissue)
  Scaled V max: 0.7 µmol/h/g liver
Chinese liver microsomes; [4]
  K m: 49 ± 8 µM
  V max: 0.35 ± 0.01 nmol /min/mg microsomal or S9 protein
Chinese liver microsomes; [5]
  Catalytic efficiency for formation of the metabolite, lower in Chinese than in Caucasian samples: 2.4 fold
  V max for formation of the metabolite, lower in Chinese than in Caucasian samples: 3.4 fold
Chinese liver microsomes; scaled kinetic constants (Table 3), conversion of estragole
  V max, lower in Chinese than in Caucasian liver incubations: 3.5 fold
[1]; formation from estragole, Caucasian, scaled to liver
  Catalytic efficiency (scaled V max / K m): 40.3 µL/h/g liver
[1]; formation from estragole, Caucasian, scaled with microsomal protein yield 35 mg/(g tissue)
  Scaled V max: 2.5 µmol/h/g liver
[1]; formation of the metabolite from estragole, Caucasian liver microsomes
  Catalytic efficiency (V max/K m × 1000): 19.3 µL/min/mg microsomal or S9 protein
[1]; [6]
  K m: 62 ± 9 µM
  V max: 1.19 ± 0.04 nmol /min/mg microsomal or S9 protein
Chinese liver S9; scaled to liver, sulfation of 1′-hydroxyestragole to 1′-sulfooxyestragole
  Scaled catalytic efficiency for sulfation, lower for Chinese than Caucasian samples: 4.5 fold

## O=c1ccc2ccccc2o1 [coumarin]
CYP 2A6 [2]; Chinese liver microsomes, literature range
  Catalytic efficiency for CYP 2A6: 150-1776 µl/min/(mg microsomal protein)
CYP 2A6 [2]
  CYP 2A6 catalyzed activity, Chinese versus Caucasian liver microsomes: no difference
CYP 2A6 [3]
  Catalytic efficiency of CYP 2A6 mediated conversion, lower in Chinese than Caucasian liver microsomes: 1.6 fold

## C=CC(OS(=O)(=O)O)c1ccc(OC)cc1 (centres unmarked) [1′-Sulfooxyestragole]
Caucasian liver S9; [7]
  Catalytic efficiency (V max/K m × 1000): 0.01 µL/min/mg microsomal or S9 protein
  K m: 423 ± 159 µM
  V max: 0.004 ± 0.0005 nmol /min/mg microsomal or S9 protein
Caucasian liver S9; sulfation of 1′-hydroxyestragole, Caucasian, S9 protein yield 143 mg/(g tissue)
  Scaled V max: 0.03 µmol/h/g liver
Caucasian liver S9; sulfation of 1′-hydroxyestragole, Caucasian, scaled to liver
  Catalytic efficiency (scaled V max / K m): 0.08 µL/h/g liver
Chinese liver S9; [8]
  Catalytic efficiency (V max/K m × 1000): 0.0021 µL/min/mg microsomal or S9 protein
  K m: 694 ± 321 µM
  V max: 0.0014 ± 0.0002 nmol /min/mg microsomal or S9 protein
Chinese liver S9; in vitro, sulfation of 1′-hydroxyestragole, liver S9
  Catalytic efficiency for formation of 1′-sulfooxyestragole, lower in Chinese than in Caucasian samples: fivefold
Chinese liver S9; sulfation of 1′-hydroxyestragole, Chinese, S9 protein yield 143 mg/(g tissue)
  Scaled V max: 0.01 µmol/h/g liver
Chinese liver S9; sulfation of 1′-hydroxyestragole, Chinese, scaled to liver
  Catalytic efficiency (scaled V max / K m): 0.02 µL/h/g liver

## O=c1ccc2ccc(O)cc2o1 [7-hydroxycoumarin]
SULT; Chinese and Caucasian liver S9
  Vmax for SULT mediated conversion, both ethnic groups compared: similar
SULT; human, pH 7.4, Chinese liver S9
  Km at 10 min: 1.7 µM
